The source of these data is patent publication US10189836B2, “Therapeutic compounds, compositions and methods of use thereof” (Genentech, Inc., priority 2015, dated 2019).

Test [1] concerns the target isolated recombinant JAK2 kinase domain (Homo sapiens (Human), UniProt O60674). The test is described as follows: JAK2 enzyme assay (Caliper LabChip, Ki). The conditions noted are these: isolated recombinant JAK2 kinase domain, 0.2 nM enzyme, ATP 25 μM. It is filed as biochemical.
For test [2], the target named is isolated recombinant JAK1 kinase domain (Homo sapiens (Human), UniProt P23458). The test is described as follows: JAK1 enzyme assay (Caliper LabChip, Ki). As to conditions: isolated recombinant JAK1 kinase domain, 1.5 nM enzyme, ATP 25 μM. The class given is biochemical.
Chain of isolated recombinant JAK1 kinase domain (P23458 875-1153): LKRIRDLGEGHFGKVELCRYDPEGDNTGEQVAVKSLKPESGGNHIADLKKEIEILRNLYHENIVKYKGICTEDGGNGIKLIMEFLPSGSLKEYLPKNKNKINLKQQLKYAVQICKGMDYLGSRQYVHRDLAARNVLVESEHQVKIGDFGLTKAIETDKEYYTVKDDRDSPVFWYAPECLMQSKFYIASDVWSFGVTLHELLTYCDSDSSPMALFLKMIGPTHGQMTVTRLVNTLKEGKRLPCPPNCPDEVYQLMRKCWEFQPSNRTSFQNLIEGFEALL

Chain of isolated recombinant JAK2 kinase domain (O60674 849-1124): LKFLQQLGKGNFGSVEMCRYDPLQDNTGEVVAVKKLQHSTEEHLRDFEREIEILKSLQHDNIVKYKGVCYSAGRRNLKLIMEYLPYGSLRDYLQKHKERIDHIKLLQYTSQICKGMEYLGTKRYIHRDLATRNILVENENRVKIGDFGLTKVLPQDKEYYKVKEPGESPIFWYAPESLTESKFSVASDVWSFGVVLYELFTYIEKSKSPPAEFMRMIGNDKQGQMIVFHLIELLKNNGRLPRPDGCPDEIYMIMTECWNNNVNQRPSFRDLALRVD

For `CN1CCN(C(=O)Cn2cc(Nc3nc4c(N5CC6CCC(C5)N6C(=O)c5cccc(Cl)c5)cccn4n3)cn2)CC1` [Example 90, 2-[4-[[8-[8-(3-chlorobenzoyl)-3,8-diazabicyclo[3.2.1]octan-3-yl]-[1,2,4]triazolo[1,5-a]pyridin-2-yl]amino]pyrazol-1-yl]-1-(4-methylpiperazin-1-yl)ethanone], the Ki (as a rule, a dissociation constant, usually derived from enzyme kinetics or from competition with a known ligand) in test [1] was determined as 2.3 nM; in test [2], 0.8 nM.
In the same order, the values of `CN1CCN(C(=O)Cn2cc(Nc3nc4c(N5CC6CCC(C5)N6C(=O)CC5CC(F)(F)C5(F)F)cccn4n3)cn2)CC1` (stereo not drawn) [Example 91, 1-[3-[2-[[1-[2-(4-methylpiperazin-1-yl)-2-oxo-ethyl]pyrazol-4-yl]amino]-[1,2,4]triazolo[1,5-a]alpyridin-8-yl]-3,8-diazabicyclo[3.2.1]octan-8-yl]-2(2,2,3,3-tetrafluorocyclobutyl) ethanone] are 0.9 nM and 0.8 nM.
With `CN1CCN(C(=O)Cn2cc(Nc3nc4c(N5CC6CCC(C5)N6C(=O)C5CC(C#N)C5)cccn4n3)cn2)CC1` (stereo not drawn) [Example 92, 3-[3-[2-[[1-[2-(4-methylpiperazin-1-yl)-2-oxo-ethyl]pyrazol-4-yl]amino]-[1,2,4]triazolo[1,5-a]pyridin-8-yl]-3,8-diazabicyclo[3.2.1]octane-8-carbonyl]cyclo-butanecarbonitrile], the Ki in test [1] came out at 1.7 nM; in test [2], 0.9 nM.
As to `CN1CCN(C(=O)Cn2cc(Nc3nc4c(N5CC6CCC(C5)N6S(=O)(=O)c5ccc(Cl)cc5)cccn4n3)cn2)CC1` [Example 93, 2-[4-[[8-[8-(4-chlorophenyl)sulfonyl-3,8-diazabicyclo[3.2.1]octan-3-yl]-[1,2,4]triazolo[1,5-a]pyridin-2-yl]amino]pyrazol-1-yl]-1-(4-methylpiperazin-1-yl)ethanone], the results for the Ki in test [1] and in test [2] were 0.8 nM and 0.3 nM, respectively.
On to `O=C(Cn1cc(Nc2nc3c(N4CC5CCC(C4)N5C(=O)N4CC(C(F)(F)F)C4)cccn3n2)cn1)N1CCN(C2CSC2)CC1` [Example 94, 1-[4-(thietan-3-yl)piperazin-1-yl]-2-[4-[[8-[8-[3-(trifluoromethyl)azetidine-1-carbonyl]-3,8-diazabicyclo[3.2.1]octan-3-yl]-[1,2,4]triazolo[1,5-a]pyridin-2-yl]amino]pyrazol-1-yl]ethanone], for which the Ki in test [1] is 0.4 nM; in test [2] it was 0.6 nM.
In the case of `CN1CCN(C(=O)Cn2cc(Nc3nc4c(N5C[C@H]6CC[C@@H](C5)[C@H]6OCc5cnn(C)c5)cccn4n3)cn2)CC1` [Example 95, 1-(4-methylpiperazin-1-yl)-2-[4-[[8-[(1S,5R)-8-[(1-methylpyrazol-4-yl)methoxy]-3-azabicyclo[3.2.1]octan-3-yl]-[1,2,4]triazolo[1,5-a]pyridin-2-yl]amino]pyrazol-1-yl]ethanone], the inhibition constant (Ki) in test [1] worked out at 5 nM; in test [2], 2.3 nM.
For `CN1CCN(C(=O)Cn2cc(Nc3nc4c(N5CC6CCCC(C5)N6C(=O)C5CSC5)cccn4n3)cn2)CC1` [Example 96, 1-(4-methylpiperazin-1-yl)-2-[4-[[8-[9-(thietane-3-carbonyl)-3,9-diazabicyclo[3.3.1]nonan-3-yl]-[1,2,4]triazolo[1,5-a]pyridin-2-yl]amino]pyrazol-1-yl]ethanone], in that order: 0.5 nM and 0.4 nM.
In the case of `CN1CCN(C(=O)Cn2cc(Nc3nc4c(N5CC6CCCC(C5)N6C(=O)CC5CC(F)(F)C5)cccn4n3)cn2)CC1` [Example 97, 2-(3,3-difluorocyclobutyl)-1-[3-[2-[[1-[2-(4-methylpiperazin-1-yl)-2-oxo-ethyl]pyrazol-4-yl]amino]-[1,2,4]triazolo[1,5-a]pyridin-8-yl]-3,9-diazabicyclo[3.3.1]nonan-9-yl]ethanone], the values for the Ki in test [1] and in test [2] were 0.5 nM and 0.6 nM, respectively.
`CN1CCN(C(=O)Cn2cc(Nc3nc4c(N5CC6CCC(C5)N6CC(F)(F)F)cccn4n3)cn2)CC1` [Example 98, 1-(4-methylpiperazin-1-yl)-2-[4-[[8-[8-(2,2,2-trifluoroethyl)-3,8-diazabicyclo[3.2.1]octan-3-yl]-[1,2,4]triazolo[1,5-a]pyridin-2-yl]amino]pyrazol-1-yl]ethanone]: the Ki in test [1] came to 4.1 nM; in test [2], 2.1 nM.
In the same order, the values of `CSc1ccc(C(=O)N2C3CCC2CN(c2cccn4nc(Nc5cnn(CC(=O)N6CCN(C)CC6)c5)nc24)C3)cc1` [Example 99, 1-(4-methylpiperazin-1-yl)-2-[4-[[8-[8-(4-methylsulfanylbenzoyl)-3,8-diazabicyclo[3.2.1]octan-3-yl]-[1,2,4]triazolo[1,5-a]pyridin-2-yl]amino]pyrazol-1-yl]ethanone] are 5.4 nM and 1.6 nM.
As to `CSc1cccc(C(=O)N2C3CCC2CN(c2cccn4nc(Nc5cnn(CC(=O)N6CCN(C)CC6)c5)nc24)C3)c1` [Example 100, 1-(4-methylpiperazin-1-yl)-2-[4-[[8-[8-(3-methylsulfanylbenzoyl)-3,8-diazabicyclo[3.2.1]octan-3-yl]-[1,2,4]triazolo[1,5-a]pyridin-2-yl]amino]pyrazol-1-yl]ethanone], the Ki amounted to 4.2 nM in test [1] and 1.2 nM in test [2].
Take `CN1CCN(C(=O)Cn2cc(Nc3nc4c(N5CC6CCC(C5)N6Cc5cnc(CC(F)(F)F)s5)cccn4n3)cn2)CC1` [Example 101, 1-(4-methylpiperazin-1-yl)-2-[4-[[8-[8-[[2-(2,2,2-trifluoroethyl)thiazol-5-yl]methyl]-3,8-diazabicyclo[3.2.1]octan-3-yl]-[1,2,4]triazolo[1,5-a]pyridin-2-yl]amino]pyrazol-1-yl]ethanone]: the Ki amounted to 10.3 nM in test [1] and 2.9 nM in test [2].
For `CN1CCN(C(=O)Cn2cc(Nc3nc4c(N5CC6CCC(C5)N6C(=O)CC(N)C(F)(F)F)cccn4n3)cn2)CC1` (stereo not drawn) [Example 102, 3-amino-4,4,4-trifluoro-1-[3-[2-[[1-[2-(4-methylpiperazin-1-yl)-2-oxo-ethyl]pyrazol-4-yl]amino]-[1,2,4]triazolo[1,5-a]pyridin-8-yl]-3,8-diazabicyclo[3.2.1]octan-8-yl]butan-1-one], in that order: 7.9 nM and 3.4 nM.
In the same order, the values of `CC(C(=O)N1CCN(C)CC1)n1cc(Nc2nc3c(N4CC5CCC(C4)N5C(=O)CCC(F)(F)F)cccn3n2)cn1` (stereo not drawn) [Example 103, 4,4,4-trifluoro-1-[3-[2-[[1-[1-methyl-2-(4-methylpiperazin-1-yl)-2-oxo-ethyl]pyrazol-4-yl]amino]-[1,2,4]triazolo[1,5-a]pyridin-8-yl]-3,8-diazabicyclo[3.2.1]octan-8-yl]butan-1-one] are 1.7 nM and 1.5 nM.
In the same order, the values of `CC(C(=O)N1CCN(C)CC1)n1cc(Nc2nc3c(N4CC5CCC(C4)N5C(=O)CCC(F)(F)F)cccn3n2)cn1` (stereo not drawn) [Example 104, 4,4,4-trifluoro-1-[3-[2-[[1-[1-methyl-2-(4-methylpiperazin-1-yl)-2-oxo-ethyl]pyrazol-4-yl]amino]-[1,2,4]triazolo[1,5-a]pyridin-8-yl]-3,8-diazabicyclo[3.2.1]octan-8-yl]butan-1-one] are 0.8 nM and 1.7 nM.
Consider `CC(C(=O)N1CCN(C)CC1)n1cc(Nc2nc3c(N4CC5CCCC(C4)N5C(=O)CCC(F)(F)F)cccn3n2)cn1` (stereo not drawn) [Example 105, 4,4,4-trifluoro-1-[3-[2-[[1-[1-methyl-2-(4-methylpiperazin-1-yl)-2-oxo-ethyl]pyrazol-4-yl]amino]-[1,2,4]triazolo[1,5-a]pyridin-8-yl]-3,9-diazabicyclo[3.3.1]nonan-9-yl]butan-1-one], for which the Ki in test [1] turned out to be 0.8 nM; in test [2], 1 nM.
Regarding `CC(C(=O)N1CCN(C)CC1)n1cc(Nc2nc3c(N4CC5CCCC(C4)N5C(=O)CCC(F)(F)F)cccn3n2)cn1` (stereo not drawn) [Example 106, 4,4,4-trifluoro-1-[3-[2-[[1-[1-methyl-2-(4-methylpiperazin-1-yl)-2-oxo-ethyl]pyrazol-4-yl]amino]-[1,2,4]triazolo[1,5-a]pyridin-8-yl]-3,9-diazabicyclo[3.3.1]nonan-9-yl]butan-1-one], the Ki in test [1] was 0.7 nM; in test [2], 1.6 nM.
`CSc1ccc(S(=O)(=O)N2C3CCC2CN(c2cccn4nc(Nc5cnn(CC(=O)N6CCN(C)CC6)c5)nc24)C3)cc1` [Example 107, 1-(4-methylpiperazin-1-yl)-2-[4-[[8-[8-(4-methylsulfanylphenyl)-sulfonyl-3,8-diazabicyclo[3.2.1]octan-3-yl]-[1,2,4]triazolo[1,5-a]pyridin-2-yl]amino]pyrazol-1-yl]ethanone]: the Ki in test [1] turned out to be 0.8 nM; in test [2] it was 0.4 nM.
Regarding `CN1CCN(C(=O)Cn2cc(Nc3nc4c(N5CC6CCC(C5)N6S(=O)(=O)Cc5ccccc5)cccn4n3)cn2)CC1` [Example 108, 2-[4-[[8-(8-benzylsulfonyl-3,8-diazabicyclo[3.2.1]octan-3-yl)-[1,2,4]triazolo[1,5-a]pyridin-2-yl]amino]pyrazol-1-yl]-1-(4-methylpiperazin-1-yl)ethanone], the Ki in test [1] came to 2.7 nM; in test [2], 1 nM.
Regarding `CN1CCN(C(=O)Cn2cc(Nc3nc4c(N5CC6CCC(C5)N6CC5(CS(C)(=O)=O)CC5)cccn4n3)cn2)CC1` [Example 109, 1-(4-methylpiperazin-1-yl)-2-[4-[[8-[8-([1-(methylsulfonylmethyl)cyclopropyl]methyl]-3,8-diazabicyclo[3.2.1]octan-3-yl]-[1,2,4]triazolo[1,5-a]pyridin-2-yl]amino]pyrazol-1-yl]ethanone], the Ki was 7 nM in test [1] and 4.8 nM in test [2].
Turning to `CN1CCN(C(=O)Cn2cc(Nc3nc4c(N5CC6CCC(C5)N6C(=O)NCC(F)(F)F)cccn4n3)cn2)CC1` [Example 110, 3-[2-[[1-[2-(4-methylpiperazin-1-yl)-2-oxo-ethyl]pyrazol-4-yl]amino]-[1,2,4]triazolo[1,5-a]pyridin-8-yl]-N-(2,2,2-trifluoroethyl)-3,8-diazabicyclo[3.2.1]octane-8-carboxamide], the Ki in test [1] was 3.4 nM; in test [2], 0.9 nM.
